Where “and” joins values, the source holds several entries; their conditions need not be identical. Equal entries are not always repeated. Entries after “also recorded” stand apart in the source; their conditions may differ. Where two headings read alike, the source gives them in different places.
Key:
S. mansoni schistosomula = S. mansoni schistosomula high-throughput phenotype and motility screen (Roboworm), 72 h; format: cell-based, Schistosoma mansoni; conditions: for EC50: Schistosoma mansoni
Summary of the method: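 Newly transformed schistosomula (S. mansoni PR-1, mechanically transformed cercariae), 120 per well, exposed to compounds at a single concentration or two-fold titrations for 72 h at 37 °C, 5% CO2.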

S. mansoni adult worms = assay: S. mansoni adult worm motility screen (WormassayGP2), 72 h; format: cell-based, Schistosoma mansoni; conditions: for EC50: Schistosoma mansoni
Summary of the method: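 Seven-week adult S. mansoni worms, perfused from infected mice, were exposed in duplicate (1–3 pairs/well) to […] compound in 0.5% DMSO for 72 h at 37 °C, 5% CO2. Motility was scored by image-based WormassayGP2, and eggs were counted afterwards.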

S. mansoni miracidia = S. mansoni miracidia to sporocyst transformation screen, 48 h; format: cell-based, Schistosoma mansoni
Source text: Following hepatic portal vein perfusion of TO mice, experimentally infected 7 weeks previously, the mouse livers were collected to isolate parasite eggs. Briefly, the infected tissues were homogenised in double saline solution (1.7% w/v NaCl) using a Waring blender. The homogenates were passed through a 0.45 μm filter to retain egg material and the resulting filtered solution was collected in a volumetric flask. Miracidia hatching was induced by exposure of eggs to light in artificial river water (e.g. Lepple water). The resulting miracidial suspension was collected, washed with Chernin's balanced salt solution (CBSS) and enumerated prior to being used for in vitro miracidia to sporocyst screens, as previously described. […] Each treatment was set up in duplicate and parasites cultured in CBSS with 1% DMSO were set up as negative controls. After 48 h incubation at 26 °C, dead, fully transformed and partially transformed miracidia were enumerated as previously described [[18],[64], [65], [66]].

[1] = system: adult S. japonicum male worms; assay: In vitro screening of S. japonicum adults at 100 nM (WormAssay motility, descriptors, severity score); format: cell-based, Schistosoma japonicum; design: key to DESCRIPTORS 48 h / DESCRIPTORS 72 h: Dark = dark; S = Slow; S-uncoord = uncoordinated slow movements; O-uncoord = uncoordinated fast movements; On sides = male worms are not adhering to dish with ventral sucker; Shrunk = worms are not flexing and are smaller than usual; Teg damage = outer surface (tegument of the worm) is damaged; Deg= degenerating; D = Dead; conditions: for Effect on S. japonicum adult male worms: 5, 24, 48 and 72 h; for SEVERITY SCORES 5 h / SEVERITY SCORES 24 h / SEVERITY SCORES 48 h / SEVERITY SCORES 72 h: max = 4, one line per replicate
Procedure: (§1) For each species, parasite recovery involved reverse perfusion of the hepatic portal and mesenteric system using DMEM (Fisher Scientific). Parasites were washed six times with Basch 169 medium supplemented with 100 U/ml penicillin and 100 μg/ml streptomycin before manually distributing approximately 5 males per well (on occasion 1 or 2 females might also be present) of a 24-well plate (Corning Costar 3524). […] The next morning, a final concentration of 100 nM compound (in 1 μL DMSO) was added to each well and the final volume made up to 2 ml with Basch 169 medium supplemented with antibiotics and FBS. Each compound was tested in triplicate (except for some instances tested in duplicate). […] The phenotypic characterisation of compound effects focused on male worms due to the greater range of their motility characteristics that include flexing, bending, stretching, sucker walking and adherence, compared to the more sedentary female worms. In addition to descriptors, WormAssay, as adapted for the schistosome, was used to measure average worm motility per well [72, 73].

[2] = system: Adult S. haematobium worms; assay: In vitro screening of S. haematobium adults at 100 nM (WormAssay motility, descriptors, severity score); format: cell-based, Schistosoma haematobium; conditions: for Effect on S. haematobium adult worms: 5, 24, 48 and 72 h; for SEVERITY SCORES 5 h / SEVERITY SCORES 24 h / SEVERITY SCORES 48 h / SEVERITY SCORES 72 h: max = 4, one line per replicate
Procedure: as §1

[3] = 72 h, Table 2, average of phenotype and motility EC50, 72 h, read-out: Activity on schistosomula (EC50, μM - 72 h) Average
[4] = 72 h, Table 2, motility, 72 h, three replicate titrations (0.313–10 μM), read-out: Activity on schistosomula (EC50, μM - 72 h) M
[5] = 72 h, Table 2, phenotype, 72 h, three replicate titrations (0.313–10 μM), read-out: Activity on schistosomula (EC50, μM - 72 h) P
[6] = Table 4, Series A, read-out: Anti-schistosomal activity EC50 Schistosomula (μM) Motility
[7] = Table 4, Series A, read-out: Anti-schistosomal activity EC50 Schistosomula (μM) Phenotype
[8] = Table 4, Series A, read-out: Anti-schistosomal activity EC50 Adult (nM) Motility
[9] = Table 2, 72 h, titrations 0.0095–5 μM, WormassayGP2, read-out: Activity on adult worms (EC50, μM - 72 h) Motility
[10] = S. japonicum, one line per replicate

O=[N+]([O-])c1ccc2nc(Nc3ccc(Cl)c(Cl)c3)c(Nc3ccc(Cl)c(Cl)c3)nc2c1 [Compound 22, N^2, N^3-bis(3,4-dichlorophenyl)-6-nitroquinoxaline-2,3-diamine]
Activity on schistosomula in the primary screen at 10 μM (S. mansoni schistosomula; 10 μM, 72 h): retained activity
EC50 (S. mansoni schistosomula; 72 h, Table 1, 72 h, two dose response titrations (0.313–10 μM), 95% CI in brackets, read-out: Activity on schistosomula (EC50, μM - 72 h) Motility): 0.38 µM
EC50 (S. mansoni schistosomula; 72 h, Table 1, 72 h, two dose response titrations (0.313–10 μM), 95% CI in brackets, read-out: Activity on schistosomula (EC50, μM - 72 h) Phenotype): 0.4 µM
EC50 (S. mansoni schistosomula; 72 h, Table 1, mean of phenotype and motility EC50, 72 h, read-out: Activity on schistosomula (EC50, μM - 72 h) Average): 0.39 µM
EC50 (S. mansoni schistosomula; [3]): 0.44 µM
EC50 (S. mansoni schistosomula; [4]): 0.42 µM
EC50 (S. mansoni schistosomula; [5]): 0.47 µM
EC50 (S. mansoni schistosomula; Table 3, read-out: Anti-schistosomal activity EC50 (μM) Schistosomula Motility): 0.42 µM
EC50 (S. mansoni schistosomula; Table 3, read-out: Anti-schistosomal activity EC50 (μM) Schistosomula Phenotype): 0.47 µM
EC50 (S. mansoni schistosomula; [6]): 0.42 µM
EC50 (S. mansoni schistosomula; [7]): 0.47 µM
EC50 (S. mansoni schistosomula; Table 5, Series C, read-out: Anti-schistosomal activity EC50 Schistosomula (μM) Motility): 0.42 µM
EC50 (S. mansoni schistosomula; Table 5, Series C, read-out: Anti-schistosomal activity EC50 Schistosomula (μM) Phenotype): 0.47 µM
EC50 (S. mansoni schistosomula; commercially sourced batch (c22), Fig. S7, read-out: EC50 on schistosomula, original commercially sourced compound): 0.61 µM
EC50 (S. mansoni schistosomula; re-synthesised batch (rs22), Fig. S7, read-out: EC50 on schistosomula, re-synthesised compound): 0.51 µM
Effect on adult worm motility at 3.15 μM (S. mansoni adult worms; 3.15 μM, lowest concentration tested): complete cessation of worm mobility; also recorded: completely inhibited
Effect on adult worm motility at 12.5 and 6.25 μM (S. mansoni adult worms; 12.5 and 6.25 μM): particularly active
EC50 (S. mansoni adult worms; Table 3, read-out: Anti-schistosomal activity EC50 (μM) Adult Motility): 0.085 µM
EC50 (S. mansoni adult worms; [8]): 0.0847 µM
EC50 (S. mansoni adult worms; [9]): 0.0847 µM
EC50 (S. mansoni adult worms; commercially sourced batch (c22), Fig. S7, read-out: EC50 on adult worms, original commercially sourced compound): 0.0685 µM
EC50 (S. mansoni adult worms; re-synthesised batch (rs22), Fig. S7, read-out: EC50 on adult worms, re-synthesised compound): 0.0731 µM
Effect on miracidia at 5 μM (S. mansoni miracidia; 5 μM in 1% DMSO): not lethal
Reduction of miracidia to sporocyst transformation at 5 μM compared to DMSO (S. mansoni miracidia; 5 μM, 48 h): 50%
Miracidial transformation inhibition at 2 and 0.5 μM (S. mansoni miracidia; 2 and 0.5 μM, 48 h): about 20%
Effect on miracidia at 10 and 50 μM (S. mansoni miracidia; 10 and 50 μM, 48 h): lethal
Effect on S. japonicum adult male worms [1]: decreased motility starting at 48 h
SEVERITY SCORES 5 h ([1]; S. japonicum): 0
SEVERITY SCORES 24 h ([1]; S. japonicum, 24 h): 0
SEVERITY SCORES 48 h ([1]; S. japonicum): 1 and 2
DESCRIPTORS 48 h [1, 10]: S and S, on sides
SEVERITY SCORES 72 h ([1]; S. japonicum): 2
DESCRIPTORS 72 h [1, 10]: S+, on sides
Effect on S. haematobium adult worms [2]: mainly inactive
SEVERITY SCORES 5 h ([2]; S. haematobium): 0
SEVERITY SCORES 24 h ([2]; S. haematobium, 24 h): 0
SEVERITY SCORES 48 h ([2]; S. haematobium, 48 h): 0
SEVERITY SCORES 72 h ([2]; S. haematobium, 72 h): 0

O=[N+]([O-])c1ccc2nc(Nc3cc(C(F)(F)F)ccc3F)c(Nc3cc(C(F)(F)F)ccc3F)nc2c1 [Compound 33, N2, N3-bis(2-fluoro-5-(trifluoromethyl)phenyl)-6-nitroquinoxaline-2,3-diamine]
EC50 (S. mansoni schistosomula; [3]): 0.15 µM
EC50 (S. mansoni schistosomula; [4]): 0.15 µM
EC50 (S. mansoni schistosomula; [5]): 0.15 µM
EC50 (S. mansoni schistosomula; 72 h, Table S7, motility, 95% CI in brackets, read-out: Activity on schistosomula (EC50, µM - 72 h) (95% CI) M): 0.15 µM
EC50 (S. mansoni schistosomula; 72 h, Table S7, phenotype, 95% CI in brackets, read-out: Activity on schistosomula (EC50, µM - 72 h) (95% CI) P): 0.15 µM
EC50 (S. mansoni schistosomula; [6]): 0.15 µM
EC50 (S. mansoni schistosomula; [7]): 0.15 µM
EC50 (S. mansoni adult worms; [8]): 0.0056 µM
EC50 (S. mansoni adult worms; [9]): 0.0056 µM
Effect on miracidia at 0.5 μM (S. mansoni miracidia; 0.5 μM, lowest concentration tested): parasite death
Onset time on S. japonicum [1]: ≤ 24 h
Effect on S. japonicum adult male worms [1]: essentially lethal
SEVERITY SCORES 5 h ([1]; S. japonicum): 0
SEVERITY SCORES 24 h ([1]; S. japonicum, 24 h): 0
DESCRIPTORS 24 h ([1]; S. japonicum, 24 h, one line per replicate): Dark, S, on sides
SEVERITY SCORES 48 h ([1]; S. japonicum): 4
DESCRIPTORS 48 h [1, 10]: Dying, deg
SEVERITY SCORES 72 h ([1]; S. japonicum): 4
DESCRIPTORS 72 h [1, 10]: Dying, D
Onset time on S. haematobium [2]: ≤ 24 h
Effect on S. haematobium adult worms [2]: best activity
SEVERITY SCORES 5 h ([2]; S. haematobium): 0
SEVERITY SCORES 24 h ([2]; S. haematobium, 24 h): 2
DESCRIPTORS 24 h ([2]; S. haematobium, 24 h, one line per replicate): S, on sides; also recorded: S, onsides
SEVERITY SCORES 48 h ([2]; S. haematobium, 48 h): 3
DESCRIPTORS 48 h ([2]; S. haematobium, 48 h, one line per replicate): S, dark on sides
SEVERITY SCORES 72 h ([2]; S. haematobium, 72 h): 4
DESCRIPTORS 72 h ([2]; S. haematobium, 72 h, one line per replicate): S, deg, on sides

— PMC8626775, “Anti-schistosomal activities of quinoxaline-containing compounds: From hit identification to lead optimisation” (European Journal of Medicinal Chemistry, 2021)
